Results on 26 molecules are retold here after US10508109B2 (priority 2015, dated 2019).

For one experiment, the system named is A549. Kind of experiment: Cell-based assay, anti-proliferative activity (Cell Counting Kit-8, 72 hours). To be noted: Homo sapiens, read-out: A549 IC50. The procedure, abridged:
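Growth read-out after inhibitor treatment of plated cells; potency expressed as IC50.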
A general note: Tetrazolium assays rely on reduction of a dye to a coloured formazan, in cell work by metabolically active cells.

In another experiment the target is SUV39H2 (Homo sapiens (Human), UniProt Q9H5I1). Put plainly: biochemical. The note with it: 3H-SAM 100 nM, H3 Histone Peptide 350 nM, room temperature 3 hours. Type of experiment: biochemical. In outline: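 Scintillation proximity format: reactions were halted with streptavidin SPA beads (50 μg/well final) after 3 h at room temperature with enzyme dosed by lot-specific activity.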
SUV39H2, sequence (Q9H5I1 whole entry): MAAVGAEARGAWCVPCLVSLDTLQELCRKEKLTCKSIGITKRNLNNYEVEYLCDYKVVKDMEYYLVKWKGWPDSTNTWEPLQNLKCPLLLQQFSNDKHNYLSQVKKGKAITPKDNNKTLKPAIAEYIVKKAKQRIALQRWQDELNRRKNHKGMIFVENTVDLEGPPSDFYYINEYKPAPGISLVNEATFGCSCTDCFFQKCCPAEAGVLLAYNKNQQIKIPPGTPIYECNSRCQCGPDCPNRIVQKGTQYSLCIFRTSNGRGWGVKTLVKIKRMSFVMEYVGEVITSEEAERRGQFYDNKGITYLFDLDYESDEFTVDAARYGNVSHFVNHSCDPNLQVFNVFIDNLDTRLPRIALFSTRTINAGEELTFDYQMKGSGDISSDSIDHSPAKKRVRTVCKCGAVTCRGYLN

Setting [1] is: A549 cells, 72 hours exposure, Cell Counting Kit-8.

pIC50: −log10 of the molar value. Structures can show the parent of a compound that is named as a salt. Where two headings read alike, the source gives them in different places.

What is called pIC50 is the negative decadic logarithm of the IC50, by convention in mol/L. Take `COc1cc(OC)c(-c2cn3ccc(N4CC[C@H](NCc5ccnc(F)c5)C4)cc3n2)cc1Cl` [Example 412, (S)-1-(2-(5-chloro-2,4-dimethoxyphenyl)imidazo[1,2-a]pyridin-7-yl)-N-((2-fluoropyridin-4-yl)methyl)pyrrolidin-3-amine dihydrochloride]: the pIC50 in the experiment on A549 (A549, 72 h) was 6.07; against SUV39H2, 8.17.
As for `COc1cc(OC)c(-c2cn3ccc(N4CCN(c5nc(N)nc(N(C)C)n5)CC4)cc3n2)cc1Cl` [Example 440, 6-(4-(2-(5-chloro-2,4-dimethoxyphenyl)imidazo[1,2-a]pyridin-7-yl)piperazin-1-yl)-N^2,N^2-dimethyl-1,3,5-triazine-2,4-diamine], the negative logarithm of the IC50 (pIC50) with A549 (setting [1]) is 6.21; against SUV39H2 it was 7.45.
Regarding `COc1cc(OC)c(-c2cn3ccc(N4CCN(c5ccnc(N6CCC(N)C6)n5)CC4)cc3n2)cc1Cl` (stereo not shown) [Example 354, 1-(4-(4-(2-(5-chloro-2,4-dimethoxyphenyl)imidazo[1,2-a]pyridin-7-yl)piperazin-1-yl)pyrimidin-2-yl)pyrrolidin-3-amine], the pIC50 is 6.31 with A549 (setting [1]) and 7.89 against SUV39H2.
Turning to `COc1cc(OC)c(-c2cn3ccc(N4CC[C@H](NCc5ccc(NC(=O)OC(C)(C)C)cc5)C4)cc3n2)cc1Cl` [Example 386, (S)-tert-butyl (4-(((1-(2-(5-chloro-2,4-dimethoxyphenyl)imidazo[1,2-a]pyridin-7-yl)pyrrolidin-3-yl)amino)methyl)phenyl)carbamate], the pIC50 is 6.14 in the experiment on A549 (setting [1]) and 7.61 against SUV39H2.
Consider `COc1cc(OC)c(-c2cn3cc(Br)c(N4CC[C@H](NCc5ccncc5)C4)cc3n2)cc1Cl` [Example 438, (S)-1-(6-bromo-2-(5-chloro-2,4-dimethoxyphenyl)imidazo[1,2-a]pyridin-7-yl)-N-(pyridin-4-ylmethyl)pyrrolidin-3-amine], for which the negative logarithm of the IC50 (pIC50) with A549 (setting [1]) was 5.62; on SUV39H2 it was 7.64.
As to `COc1cc(OC)c(-c2cn3ccc(N4CCC(C(=O)Nc5ccccc5)CC4)cc3n2)cc1Cl` [Example 456, 1-(2-(5-chloro-2,4-dimethoxyphenyl)imidazo[1,2-a]pyridin-7-yl)-N-phenylpiperidine-4-carboxamide], the pIC50 in the experiment with A549 (setting [1]) is 6.20; on SUV39H2, 7.59.
On the same counts, the results for `COc1cc(OC)c(-c2cn3ccc(N4CCC(C(=O)NC5CCN(C(=O)OC(C)(C)C)CC5)CC4)cc3n2)cc1Cl` [Example 460, tert-butyl 4-(1-(2-(5-chloro-2,4-dimethoxyphenyl)imidazo[1,2-a]pyridin-7-yl)piperidine-4-carboxamido)piperidine-1-carboxylate] are 6.16 and 7.68.
On the same counts, the results for `COc1cc(OC)c(-c2cn3ccc(N4CCN(c5ncc(N6CCC(N)CC6)cn5)CC4)cc3n2)cc1Cl` [Example 441, 1-(2-(4-(2-(5-chloro-2,4-dimethoxyphenyl)imidazo[1,2-a]pyridin-7-yl)piperazin-1-yl)pyrimidin-5-yl)piperidin-4-amine] are 6.27 and 8.30.
For `COc1cc(OC)c(-c2cn3ccc(N[C@H]4C[C@H]5CC[C@@H](C4)N5Cc4ccccc4)cc3n2)cc1Cl` [Example 433, N-((1R,3r,5S)-8-benzyl-8-azabicyclo[3.2.1]octan-3-yl)-2-(5-chloro-2,4-dimethoxyphenyl)imidazo[1,2-a]pyridin-7-amine], the values for the negative-log IC50 (pIC50) in the experiment with A549 (setting [1]) and against SUV39H2 were 6.09 and 7.24, respectively.
Turning to `COc1ccc(N2CCN(c3ccn4cc(-c5cc(Cl)c(OC)cc5OC)nc4c3)CC2)nc1` [Example 321, 2-(5-chloro-2,4-dimethoxyphenyl)-7-(4-(5-methoxypyridin-2-yl)piperazin-1-yl)imidazo[1,2-a]pyridine], the pIC50 in the experiment on A549 (setting [1]) was 6.06; against SUV39H2, 7.06.
For `COc1cc(OC)c(-c2cn3ccc(N[C@H]4CC[C@@H](NCc5ccc(F)cc5)CC4)cc3n2)cc1Cl` [Example 326, cis-N^1-(2-(5-chloro-2,4-dimethoxyphenyl)imidazo[1,2-a]pyridin-7-yl)-N^4-(4-fluorobenzyl)cyclohexane-1,4-diamine], in that order: 6.18 and 7.69.
Regarding `COc1cc(OC)c(-c2cn3ccc(N[C@H]4C[C@H]5CC[C@@H](C4)N5Cc4ccncc4)cc3n2)cc1Cl` [Example 448, 2-(5-chloro-2,4-dimethoxyphenyl)-N-((1R,3r,5S)-8-(pyridin-4-ylmethyl)-8-azabicyclo[3.2.1]octan-3-yl)imidazo[1,2-a]pyridin-7-amine], the pIC50 in the experiment with A549 (setting [1]) was 6.47; against SUV39H2 it was 7.65.
Consider `COc1cc(OC)c(-c2cn3ccc(N4CCN(S(C)(=O)=O)CC4C)cc3n2)cc1Cl` (stereo not shown) [Example 311, 2-(5-chloro-2,4-dimethoxyphenyl)-7-(2-methyl-4-(methylsulfonyl)piperazin-1-yl)imidazo[1,2-a]pyridine], for which the figures for the pIC50 with A549 (setting [1]) and on SUV39H2 were 5.42 and 8.31, respectively.
Regarding `COc1cc(OC)c(-c2cn3ccc(N4CCN(c5ccnc(N6CCC(O)C6)n5)CC4)cc3n2)cc1Cl` (stereo not shown) [Example 346, 1-(4-(4-(2-(5-chloro-2,4-dimethoxyphenyl)imidazo[1,2-a]pyridin-7-yl)piperazin-1-yl)pyrimidin-2-yl)pyrrolidin-3-ol], the pIC50 in the experiment with A549 (A549, 72 h) was 6.23; on SUV39H2 it was 7.82.
As for `COc1cc(OC)c(-c2cn3ccc(N4CCN(c5cnc(N6CCCC6)nc5)CC4)cc3n2)cc1Cl` [Example 333, 2-(5-chloro-2,4-dimethoxyphenyl)-7-(4-(2-(pyrrolidin-1-yl)pyrimidin-5-yl)piperazin-1-yl)imidazo[1,2-a]pyridine], the pIC50 in the experiment with A549 (setting [1]) was 6.14; against SUV39H2 it was 7.21.
For `COc1cc(OC)c(-c2cn3ccc(N4CCN(c5cc(Cl)nc(N)n5)CC4)cc3n2)cc1Cl` [Example 360, 4-chloro-6-(4-(2-(5-chloro-2,4-dimethoxyphenyl)imidazo[1,2-a]pyridin-7-yl)piperazin-1-yl)pyrimidin-2-amine], the pIC50 was 6.21 in the experiment with A549 (setting [1]) and 7.25 against SUV39H2.
For `COc1cc(OC)c(-c2cn3ccc(N4CCN(c5nccc(N6CCOCC6)n5)CC4)cc3n2)cc1Cl` [Example 363, 4-(2-(4-(2-(5-chloro-2,4-dimethoxyphenyl)imidazo[1,2-a]pyridin-7-yl)piperazin-1-yl)pyrimidin-4-yl)morpholine], in that order: 6.31 and 7.58.
On the same counts, the results for `COc1cc(OC)c(-c2cn3ccc(N[C@H]4CC[C@@H](NCc5ccc(C#N)cc5)CC4)cc3n2)cc1Cl` [Example 403, 4-((((1s,4s)-4-((2-(5-chloro-2,4-dimethoxyphenyl)imidazo[1,2-a]pyridine-7-yl)amino)cyclohexyl)amino)methyl) benzonitrile] are 6.12 and 7.82.
On to `COc1cc(OC)c(-c2cn3ccc(N4CCN(Cc5ccncc5Br)CC4)cc3n2)cc1Cl` [Example 345, 7-(4-((3-bromopyridin-4-yl)methyl)piperazin-1-yl)-2-(5-chloro-2,4-dimethoxyphenyl)imidazo[1,2-a]pyridine], for which the pIC50 in the experiment on A549 (setting [1]) is 6.07; against SUV39H2, 7.45.
On the same counts, the results for `CNC1CCCN(c2ncc(N3CCN(c4ccn5cc(-c6cc(Cl)c(OC)cc6OC)nc5c4)CC3)cn2)C1` (stereo not shown) [Example 428, 1-(5-(4-(2-(5-chloro-2,4-dimethoxyphenyl)imidazo[1,2-a]pyridin-7-yl)piperazin-1-yl)pyrimidin-2-yl)-N-methylpiperidin-3-amine] are 6.11 and 7.84.
As to `COc1cc(OC)c(-c2cn3ccc(N4CCN(c5ncnc(N6CCOCC6)n5)CC4)cc3n2)cc1Cl` [Example 449, 4-(4-(4-(2-(5-chloro-2,4-dimethoxyphenyl)imidazo[1,2-a]pyridin-7-yl)piperazin-1-yl)-1,3,5-triazin-2-yl)morpholine], the pIC50 in the experiment on A549 (A549, 72 h) was 6.06; at SUV39H2, 7.76.
With `COc1cc(OC)c(-c2cn3ccc(N4CCN(Cc5ncccn5)CC4)cc3n2)cc1Cl` [Example 352, 2-(5-chloro-2,4-dimethoxyphenyl)-7-(4-(pyrimidin-2-ylmethyl)piperazin-1-yl)imidazo[1,2-a]pyridine], the pIC50 is 5.00 with A549 (setting [1]) and 8.03 against SUV39H2.
For `COc1cc(OC)c(-c2cn3ccc(N4CCCN(c5cncnc5)CC4)cc3n2)cc1Cl` [Example 383, 2-(5-chloro-2,4-dimethoxyphenyl)-7-(4-(pyrimidin-5-yl)-1,4-diazepan-1-yl)imidazo[1,2-a]pyridine], in that order: 6.06 and 7.86.
Consider `CNC1CCN(c2ncc(N3CCN(c4ccn5cc(-c6cc(Cl)c(OC)cc6OC)nc5c4)CC3)cn2)C1` (stereo not shown) [Example 401, 1-(5-(4-(2-(5-chloro-2,4-dimethoxyphenyl)imidazo[1,2-a]pyridin-7-yl)piperazin-1-yl)pyrimidin-2-yl)-N-methylpyrrolidin-3-amine dihydrochloride], for which the negative logarithm of the IC50 (pIC50) was 6.30 in the experiment on A549 (A549, 72 h) and 8.17 against SUV39H2.
Turning to `COc1cc(OC)c(-c2cn3ccc(N[C@H]4CC[C@@H](NCc5cccc(C#N)c5)CC4)cc3n2)cc1Cl` [Example 371, 3-(((cis-4-((2-(5-chloro-2,4-dimethoxyphenyl)imidazo[1,2-a]pyridin-7-yl)amino)cyclohexyl)amino)methyl)benzonitrile], the pIC50 in the experiment on A549 (setting [1]) is 6.16; at SUV39H2, 7.79.
For `COc1cc(OC)c(-c2cn3ccc(N[C@H]4CC[C@@H](NCC5CCN(C(=O)OC(C)(C)C)CC5)CC4)cc3n2)cc1Cl` [Example 423, tert-butyl 4-(((cis-4-((2-(5-chloro-2,4-dimethoxyphenyl)imidazo[1,2-a]pyridin-7-yl)amino)cyclohexyl)amino)methyl)piperidine-1-carboxylate], in that order: 6.23 and 7.57.
